# Reference: patent US12162840B2, “Herbicidal compositions” (SYNGENTA PARTICIPATIONS AG, priority 2018, dated 2024)
# Tests used:
# Format in all cases: in vivo
# [1] = system: Echinochloa crus-galli (ECHCG); assay: B1 Post-emergence efficacy Test 1; details: post-emergence application, 1000 g/ha, evaluated after 13 days
# Summary of the method: (§1)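 Damage ratings on a 1–5 scale (5=80-100%, 4=60-79%, 3=40-59%, 2=20-39%, 1=0-19%) come from visual assessment 13 days after spraying. Plants were treated at 8 days post-sowing with 1000 g/ha in acetone/water (50:50) containing 0.5% Tween 20.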
# [2] = system: Amaranthus retoflexus (AMARE); assay: B1 Post-emergence efficacy Test 1; details: post-emergence application, 1000 g/ha, evaluated after 13 days
# Summary of the method: as §1
# [3] = system: Ipomoea hederacea (IPOHE); assay: B1 Post-emergence efficacy Test 1; details: post-emergence application, 1000 g/ha, evaluated after 13 days
# Summary of the method: as §1
# Setaria faberi (SETFA) = assay: B1 Post-emergence efficacy Test 1; details: post-emergence application, 1000 g/ha, evaluated after 13 days
# Summary of the method: as §1
# Lolium perenne (LOLPE) = assay: B1 Post-emergence efficacy Test 1; details: post-emergence application, 1000 g/ha, evaluated after 13 days
# Summary of the method: as §1
# Solanum nigrum (SOLNI) = assay: B1 Post-emergence efficacy Test 1; details: post-emergence application, 1000 g/ha, evaluated after 13 days
# Summary of the method: as §1
# [4] = system: warm season plant species; assay: B2 Post-emergence efficacy Test 2, warm season plant species; details: 15 days after application, 0-100 scale, 0=no damage, 100=total kill; for Herbicidal activity, ABUTH: Abutilon theophrasti; for Herbicidal activity, AMARE: Amaranthus retroflexus; for Herbicidal activity, BIDPI: Bidens pilosa; for Herbicidal activity, BRAPL: Brachiaria plantaginea; for Herbicidal activity, DIGSA: Digitaria sanguinalis; for Herbicidal activity, ECHCG: Echinochloa crus galli; for Herbicidal activity, ELEIN: Eleisine indica; for Herbicidal activity, EPHHL: Euphorbia hetrophylla; for Herbicidal activity, GLXMA: Glycine max; for Herbicidal activity, IPOHE: Ipomoea hederacea; for Herbicidal activity, ORYSA: Orysa sativa; for Herbicidal activity, PANMI: Panicum miliaceum; for Herbicidal activity, SETFA: Setaria faberi; for Herbicidal activity, SIDSP: Sida spinosa; for Herbicidal activity, SORVU: Sorghum bicolour; for Herbicidal activity, XANST: Xanthium strumarium; for Herbicidal activity, ZEAMX: Zea mays
# Description: Seeds of a variety of test species (see Table B1) were sown in standard soil in pots. After cultivation for 12 days (post-emergence) under controlled conditions in a glasshouse (at 24/18° C. or 20/16° C., at day/night; 16 hours light; 65% humidity), the plants were sprayed with an aqueous spray solution derived from the formulation of the technical active ingredient dissolved in IF50 (see Table B2 for composition) and adjuvant (Genapol XO80) was added to the spray solution at a rate of 0.2% v/v. [table] [table] After application, the test plants were grown in a glasshouse under controlled conditions (as above) and watered twice daily. Herbicidal activity was evaluated 15 days after application on a 0-100 scale. The results, where 0=no damage to test plant and 100=total kill of test plant are shown below in Tables 6 to 9.
compound,measurement,setting,value
Cc1nn(C)c(=O)c(-c2c(F)ccc(Cl)c2CCc2ccc(F)cc2)c1OC(=O)C(C)C [Compound 1.125],"percentage damage caused to the plant, five point scale, ECHCG",[1],5 (5=80-100%)
same,"percentage damage caused to the plant, five point scale, AMARE",[2],5 (5=80-100%)
same,"percentage damage caused to the plant, five point scale, IPOHE",[3],5 (5=80-100%)
same,"percentage damage caused to the plant, five point scale, SETFA",Setaria faberi (SETFA),5 (5=80-100%)
same,"percentage damage caused to the plant, five point scale, LOLPE",Lolium perenne (LOLPE),5 (5=80-100%)
same,"percentage damage caused to the plant, five point scale, SOLNI",Solanum nigrum (SOLNI),5 (5=80-100%)
same,"Herbicidal activity, ABUTH",[4]; 15 g/Ha,80
same,"Herbicidal activity, ABUTH",[4]; 30 g/Ha,90
same,"Herbicidal activity, ABUTH",[4]; 60 g/Ha,90
same,"Herbicidal activity, ABUTH",[4]; 125 g/Ha,90
same,"Herbicidal activity, ABUTH",[4]; 250 g/Ha,100
same,"Herbicidal activity, ABUTH",[4]; 500 g/Ha,100
same,"Herbicidal activity, AMARE",[4]; 15 g/Ha,80
same,"Herbicidal activity, AMARE",[4]; 30 g/Ha,90
same,"Herbicidal activity, AMARE",[4]; 60 g/Ha,90
same,"Herbicidal activity, AMARE",[4]; 125 g/Ha,100
same,"Herbicidal activity, AMARE",[4]; 250 g/Ha,100
same,"Herbicidal activity, AMARE",[4]; 500 g/Ha,100
same,"Herbicidal activity, BIDPI",[4]; 15 g/Ha,60
same,"Herbicidal activity, BIDPI",[4]; 30 g/Ha,60
same,"Herbicidal activity, BIDPI",[4]; 60 g/Ha,70
same,"Herbicidal activity, BIDPI",[4]; 125 g/Ha,70
same,"Herbicidal activity, BIDPI",[4]; 250 g/Ha,80
same,"Herbicidal activity, BIDPI",[4]; 500 g/Ha,100
same,"Herbicidal activity, BRAPL",[4]; 15 g/Ha,80
same,"Herbicidal activity, BRAPL",[4]; 60 g/Ha,80
same,"Herbicidal activity, BRAPL",[4]; 125 g/Ha,80
same,"Herbicidal activity, BRAPL",[4]; 250 g/Ha,70
same,"Herbicidal activity, BRAPL",[4]; 500 g/Ha,80
same,"Herbicidal activity, DIGSA",[4]; 15 g/Ha,0
same,"Herbicidal activity, DIGSA",[4]; 30 g/Ha,0
same,"Herbicidal activity, DIGSA",[4]; 60 g/Ha,0
same,"Herbicidal activity, DIGSA",[4]; 125 g/Ha,10
same,"Herbicidal activity, DIGSA",[4]; 250 g/Ha,30
same,"Herbicidal activity, DIGSA",[4]; 500 g/Ha,70
same,"Herbicidal activity, ECHCG",[4]; 15 g/Ha,70
same,"Herbicidal activity, ECHCG",[4]; 30 g/Ha,80
same,"Herbicidal activity, ECHCG",[4]; 60 g/Ha,80
same,"Herbicidal activity, ECHCG",[4]; 125 g/Ha,80
same,"Herbicidal activity, ECHCG",[4]; 250 g/Ha,90
same,"Herbicidal activity, ECHCG",[4]; 500 g/Ha,100
same,"Herbicidal activity, ELEIN",[4]; 15 g/Ha,40
same,"Herbicidal activity, ELEIN",[4]; 30 g/Ha,40
same,"Herbicidal activity, ELEIN",[4]; 60 g/Ha,70
same,"Herbicidal activity, ELEIN",[4]; 125 g/Ha,70
same,"Herbicidal activity, ELEIN",[4]; 250 g/Ha,80
same,"Herbicidal activity, ELEIN",[4]; 500 g/Ha,80
same,"Herbicidal activity, EPHHL",[4]; 15 g/Ha,90
same,"Herbicidal activity, EPHHL",[4]; 30 g/Ha,90
same,"Herbicidal activity, EPHHL",[4]; 60 g/Ha,100
same,"Herbicidal activity, EPHHL",[4]; 125 g/Ha,100
same,"Herbicidal activity, EPHHL",[4]; 250 g/Ha,100
same,"Herbicidal activity, EPHHL",[4]; 500 g/Ha,100
same,"Herbicidal activity, GLXMA",[4]; 15 g/Ha,40
same,"Herbicidal activity, GLXMA",[4]; 30 g/Ha,70
same,"Herbicidal activity, GLXMA",[4]; 60 g/Ha,70
same,"Herbicidal activity, GLXMA",[4]; 250 g/Ha,90
same,"Herbicidal activity, GLXMA",[4]; 500 g/Ha,90
same,"Herbicidal activity, IPOHE",[4]; 15 g/Ha,90
same,"Herbicidal activity, IPOHE",[4]; 30 g/Ha,100
same,"Herbicidal activity, IPOHE",[4]; 60 g/Ha,100
same,"Herbicidal activity, IPOHE",[4]; 125 g/Ha,100
same,"Herbicidal activity, IPOHE",[4]; 250 g/Ha,100
same,"Herbicidal activity, IPOHE",[4]; 500 g/Ha,100
same,"Herbicidal activity, ORYSA",[4]; 15 g/Ha,0
same,"Herbicidal activity, ORYSA",[4]; 30 g/Ha,0
same,"Herbicidal activity, ORYSA",[4]; 60 g/Ha,0
same,"Herbicidal activity, ORYSA",[4]; 125 g/Ha,0
same,"Herbicidal activity, ORYSA",[4]; 250 g/Ha,0
same,"Herbicidal activity, ORYSA",[4]; 500 g/Ha,0
same,"Herbicidal activity, PANMI",[4]; 15 g/Ha,20
same,"Herbicidal activity, PANMI",[4]; 30 g/Ha,30
same,"Herbicidal activity, PANMI",[4]; 60 g/Ha,50
same,"Herbicidal activity, PANMI",[4]; 125 g/Ha,50
same,"Herbicidal activity, PANMI",[4]; 250 g/Ha,70
same,"Herbicidal activity, PANMI",[4]; 500 g/Ha,80
same,"Herbicidal activity, SETFA",[4]; 15 g/Ha,0
same,"Herbicidal activity, SETFA",[4]; 30 g/Ha,10
same,"Herbicidal activity, SETFA",[4]; 60 g/Ha,20
same,"Herbicidal activity, SETFA",[4]; 125 g/Ha,20
same,"Herbicidal activity, SETFA",[4]; 250 g/Ha,20
same,"Herbicidal activity, SETFA",[4]; 500 g/Ha,100
same,"Herbicidal activity, SIDSP",[4]; 60 g/Ha,80
same,"Herbicidal activity, SIDSP",[4]; 125 g/Ha,90
same,"Herbicidal activity, SIDSP",[4]; 250 g/Ha,90
same,"Herbicidal activity, SIDSP",[4]; 500 g/Ha,100
same,"Herbicidal activity, SORVU",[4]; 15 g/Ha,0
same,"Herbicidal activity, SORVU",[4]; 30 g/Ha,50
same,"Herbicidal activity, SORVU",[4]; 60 g/Ha,50
same,"Herbicidal activity, SORVU",[4]; 125 g/Ha,70
same,"Herbicidal activity, SORVU",[4]; 250 g/Ha,80
same,"Herbicidal activity, SORVU",[4]; 500 g/Ha,90
same,"Herbicidal activity, XANST",[4]; 30 g/Ha,90
same,"Herbicidal activity, XANST",[4]; 60 g/Ha,90
same,"Herbicidal activity, XANST",[4]; 125 g/Ha,90
same,"Herbicidal activity, XANST",[4]; 250 g/Ha,90
same,"Herbicidal activity, XANST",[4]; 500 g/Ha,100
same,"Herbicidal activity, ZEAMX",[4]; 15 g/Ha,0
same,"Herbicidal activity, ZEAMX",[4]; 30 g/Ha,20
same,"Herbicidal activity, ZEAMX",[4]; 60 g/Ha,30
same,"Herbicidal activity, ZEAMX",[4]; 125 g/Ha,20
same,"Herbicidal activity, ZEAMX",[4]; 250 g/Ha,40
same,"Herbicidal activity, ZEAMX",[4]; 500 g/Ha,70
